Source: publication PMC10610115, “Identification of Potential JNK3 Inhibitors: A Combined Approach Using Molecular Docking and Deep Learning-Based Virtual Screening” (Pharmaceuticals, 2023)

Molecular target: T1, JNK3 (c-Jun N-terminal kinase 3) (Homo sapiens, UniProt P53779)
T1 construct: gene MAPK10
Experiment: HTRF-type kinase assay (Cryptate/XL665), dose response
Assay type: biochemical

T1 sequence (P53779 whole entry): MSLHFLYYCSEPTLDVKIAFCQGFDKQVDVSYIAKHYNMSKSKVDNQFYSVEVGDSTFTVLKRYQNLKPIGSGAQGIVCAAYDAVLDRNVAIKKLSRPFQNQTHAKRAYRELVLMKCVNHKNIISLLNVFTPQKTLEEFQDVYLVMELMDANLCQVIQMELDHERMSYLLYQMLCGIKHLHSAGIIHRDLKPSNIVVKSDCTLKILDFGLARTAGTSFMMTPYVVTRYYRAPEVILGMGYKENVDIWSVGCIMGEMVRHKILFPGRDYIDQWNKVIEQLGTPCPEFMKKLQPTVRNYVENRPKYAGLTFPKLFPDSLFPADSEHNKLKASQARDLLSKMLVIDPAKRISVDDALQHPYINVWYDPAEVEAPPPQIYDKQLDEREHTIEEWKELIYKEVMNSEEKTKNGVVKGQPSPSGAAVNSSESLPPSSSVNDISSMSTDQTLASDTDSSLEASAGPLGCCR

IC50: 0.13 µM
SMILES: CCc1nc(-c2cccc(C)c2)c(-c2ccnc(NC(=O)c3ccccc3)c2)s1 [compound 6, N-(4-(2-ethyl-4-(m-tolyl)thiazol-5-yl)pyridin-2-yl)benzamide]
